The results in this text go back to patent US20240287093A1, “HIGH ACTIVITY STING PROTEIN AGONIST” (ADLAI NORTYE BIOPHARMA CO., LTD., priority 2018, published 2024).

Common to all, as to assay type: cell-based
Assay [1] concerns the target T1, STING variants (WT) (Homo sapiens, UniProt Q86WV6).
T1 construct: host or cells: HEK-Blue ISG KO-STING cells (Invivogen, hkb-kostg)
The experiment in a line: SEAP reporter assay in HEK-Blue ISG KO-STING cells transfected with STING WT variant (Method 2, 1 ng vector). The note with it: compound concentration 2.5 (mM as printed); 24 h; SEAP signal ratio to 0.5% DMSO. The source says: (§1) Example II: STING Variants (WT & HAQ) Activation by Compounds in HEK-Blue™ ISG KO-STING Cells (Method 2)
(§2) Activation of STING can be determined using a SEAP reporter assay in HEK-Blue™ ISG KO-STING cells (Invivogen, cat #hkb-kostg) transfected with plasmids expressing STING variants (WT & HAQ) (referred to WO2017/175147A1). STING variants (WT & HAQ) vector were constructed based on STING-232H vector (Origene, RC208418). GFP vector (VT2069) was bought from Youbio. The detailed protocol as follows: HEK-Blue™ ISG KO-STING cells were harvest and seeding into 96 well plate and the final cell number was 0.8×10^5 cells/well. Transfections were prepared using Lipofectamine 2000 (Invitrogen, Cat #11668-027) following the manufacturer's instructions (Lipo2000:DNA=1:10), 20 ul of transfection suspension containing 1 ng (WT variant) or 0.0625 ng (HAQ variant) STING vector was added to cell culture plate and incubated at 37° C., 5% CO2 for 24 h. After 24 hours incubation, compounds were added at proper concentration, the final DMSO concentration was 0.5%. After 24h incubation, the supernatant was collected to detect SEAP signal using Great EscAPe SEAP chemiluminescence KIT (Clontech, cat #631738) and cells were collected to detect cell viability using CellTiter-Glo Luminescent Cell Viability Assay(Promega, cat #G7573) following the manufacturer's instructions. The data were described by the ratio of the stimulating signal of compounds to 0.5% DMSO.
(Reporter assays use an easily measured gene product as a stand-in for the process of interest.)

Assay [2] addresses T2, STING variants (HAQ) (Homo sapiens, UniProt Q86WV6, G230A/R293Q/R71H).
T2 construct: host or cells: HEK-Blue ISG KO-STING cells (Invivogen, hkb-kostg)
Nature of the assay: SEAP reporter assay in HEK-Blue ISG KO-STING cells transfected with STING HAQ variant (Method 2, 0.0625 ng vector). The following applies: compound concentration 5 (mM as printed); 24 h; SEAP signal ratio to 0.5% DMSO.
Description: as §1, §2

Assay [3] concerns the target T3, STING (Homo sapiens, UniProt Q86WV6, G230A/H232R/R293Q/R71H).
T3 construct: THP1 was purchased from National Collection of Authenticated Cell Cultures (Cat #TCHu 57); host or cells: THP1
The experiment in a line: IFNβ release from THP1 by STING activation (hIFNβ ELISA). The following applies: THP1 cells, 24 h, IFN-β in supernatant; inactive = IFNβ not detected at the maximum concentration of compounds. In outline: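 THP1 cells from log-phase culture, suspended at 2×10^6 cells/ml, were treated with an 8-point, 3-fold compound series (0.2% DMSO final) for 24 h at 37°C, 5% CO2. Secreted IFN-β in supernatant was quantified by human IFNβ ELISA, and EC50 was obtained by curve fitting.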
For orientation: ELISA stands for enzyme-linked immunosorbent assay.

T3 sequence (Q86WV6 whole entry R71H/G230A/H232R/R293Q): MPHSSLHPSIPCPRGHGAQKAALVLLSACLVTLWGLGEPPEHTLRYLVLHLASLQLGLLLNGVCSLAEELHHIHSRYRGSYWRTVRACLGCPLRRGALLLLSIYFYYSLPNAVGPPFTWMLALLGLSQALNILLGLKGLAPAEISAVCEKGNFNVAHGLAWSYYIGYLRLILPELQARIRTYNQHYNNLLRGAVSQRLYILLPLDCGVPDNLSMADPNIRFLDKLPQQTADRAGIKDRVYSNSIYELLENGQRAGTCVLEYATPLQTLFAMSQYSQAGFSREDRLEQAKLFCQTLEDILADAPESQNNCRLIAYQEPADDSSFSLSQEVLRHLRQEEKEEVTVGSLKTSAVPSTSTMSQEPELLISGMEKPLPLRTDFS
T2 sequence (Q86WV6 whole entry R71H/G230A/R293Q): as the sequence (Q86WV6 whole entry R71H/G230A/H232R/R293Q) above, with R232H counted along it

Regarding `C=CCCCn1nc(C)cc1C(=O)Nc1nc2cc(C(N)=O)cc3c2n1[C@@H](CCCN)CO3` [Example 50, (S)-3-(3-Aminopropyl)-2-(3-methyl-1-(pent-4-en-1-yl)-1H-pyrazole-5-carboxamido)-3,4-dihydro-5-oxa-1,2a-diazaacenaphthylene-7-carboxamide], the “Fold change related to DMSO control, WT” value in assay [1] was 0.83 fold. Moreover, the “Fold change related to DMSO control, HAQ” value in assay [2] is recorded as 1.27 fold. In assay [3], the “hIFNβ ELISA (EC50, μM)” value was “inactive”.

On to `C=Cc1c(C)nn(CC)c1C(=O)Nc1nc2cc(C(N)=O)cc3c2n1[C@@H](CCCN)CO3` [Example 51, (S)-3-(3-Aminopropyl)-2-(1-ethyl-3-methyl-4-vinyl-1H-pyrazole-5-carboxamido)-3,4-dihydro-5-oxa-1,2a-diazaacenaphthylene-7-carboxamide], for which the “Fold change related to DMSO control, WT” value in assay [1] is listed as 0.79 fold. In addition, in assay [2], the “Fold change related to DMSO control, HAQ” value is 0.63 fold. Moreover, in assay [3], the “hIFNβ ELISA (EC50, μM)” value was “inactive”.

Turning to `CCn1nc(C)cc1C(=O)Nc1nc2cc(C(N)=O)cc3c2n1C[C@@H](CO)O3` [Example 52, (S)-2-(1-ethyl-3-methyl-1H-pyrazole-5-carboxamido)-4-(hydroxymethyl)-3,4-dihydro-5-oxa-1,2a-diazaacenaphthylene-7-carboxamide], in assay [1], the “Fold change related to DMSO control, WT” value is listed as 0.82 fold. For the same molecule, the “Fold change related to DMSO control, HAQ” value in assay [2] was determined as 0.82 fold. For the same molecule, the “hIFNβ ELISA (EC50, μM)” value in assay [3] was “inactive”.

As a reminder, the EC50 is the midpoint of the concentration-response curve. For the molecule `CCn1nc(C)cc1C(=O)Nc1nc2cc(C(N)=O)cc3c2n1CC(F)(F)CO3` [Example 53, 1-(1-Ethyl-3-methyl-1H-pyrazole-5-carboxamido)-8,8-difluoro-8,9-dihydro-7H-6-oxa-2,9a-diazabenzo[cd]azulene-4-carboxamide], the “Fold change related to DMSO control, WT” value in assay [1] was determined as 1.53 fold. For the same molecule, the “Fold change related to DMSO control, HAQ” value in assay [2] was 2.42 fold. In assay [3], this molecule displayed an EC50 of over 22.7 µM.

Take `CCn1nc(C)c(F)c1C(=O)Nc1nc2cc(C(N)=O)cc3c2n1[C@@H](C(C)C)CO3` [Example 54, (S)-2-(1-Ethyl-4-fluoro-3-methyl-1H-pyrazole-5-carboxamido)-3-isopropyl-3,4-dihydro-5-oxa-1,2a-diazaacenaphthylene-7-carboxamide]: in assay [1], the “Fold change related to DMSO control, WT” value is given as 2.29 fold. Besides, the “Fold change related to DMSO control, HAQ” value in assay [2] came to 7.79 fold. This molecule showed an EC50 in assay [3] of over 16.7 µM.

For the molecule `CCn1nc(C)c(Cl)c1C(=O)Nc1nc2cc(C(N)=O)cc3c2n1[C@@H](C(C)C)CO3` [Example 55, (S)-2-(4-chloro-1-ethyl-3-methyl-1H-pyrazole-5-carboxamido)-3-isopropyl-3,4-dihydro-5-oxa-1,2a-diazaacenaphthylene-7-carboxamide], in assay [1], the “Fold change related to DMSO control, WT” value stood at 1.38 fold. Besides, the “Fold change related to DMSO control, HAQ” value in assay [2] is 2.96 fold. In assay [3], the “hIFNβ ELISA (EC50, μM)” value was “inactive”.

`CCn1nc(C)c(Br)c1C(=O)Nc1nc2cc(C(N)=O)cc3c2n1[C@@H](C(C)C)CO3` [Example 56, (S)-2-(4-Bromo-1-ethyl-3-methyl-1H-pyrazole-5-carboxamido)-3-isopropyl-3,4-dihydro-5-oxa-1,2a-diazaacenaphthylene-7-carboxamide]: in assay [1], the “Fold change related to DMSO control, WT” value is 1.16 fold. Moreover, the “Fold change related to DMSO control, HAQ” value in assay [2] was determined as 1.17 fold. In addition, in assay [3], the “hIFNβ ELISA (EC50, μM)” value was “inactive”.

As for `CCn1nc(C)cc1C(=O)Nc1nc2cc(C(N)=O)cc3c2n1CCCO3` [Example 57, 1-(1-Ethyl-3-methyl-1H-pyrazole-5-carboxamido)-8,9-dihydro-7H-6-oxa-2,9a-diazabenzo[cd]azulene-4-carboxamide], the “Fold change related to DMSO control, WT” value in assay [1] came to 1.34 fold. Also, in assay [2], the “Fold change related to DMSO control, HAQ” value stood at 3.59 fold. Also, in assay [3], the “hIFNβ ELISA (EC50, μM)” value is “inactive”.

In the case of `CCn1nc(C)cc1C(=O)Nc1nc2cc(C(N)=O)cc3c2n1[C@@H](CO)CO3` [Example 58, (S)-2-(1-ethyl-3-methyl-1H-pyrazole-5-carboxamido)-3-(hydroxymethyl)-3,4-dihydro-5-oxa-1,2a-diazaacenaphthylene-7-carboxamide], in assay [1], the “Fold change related to DMSO control, WT” value is 1.06 fold. For the same molecule, in assay [2], the “Fold change related to DMSO control, HAQ” value came to 0.95 fold. In assay [3], the EC50 is over 50 µM.

As to `CCn1nc(C)cc1C(=O)Nc1nc2cc(C(N)=O)cc3c2n1CC1(COC1)CO3` [Example 59, 1-(1-Ethyl-3-methyl-1H-pyrazole-5-carboxamido)-7H,9H-6-oxa-2,9a-diazaspiro[benzo[cd]azulene-8,3′-oxetan]-1,2a,2a^1(5a),4-tetraene-4-carboxamide], the “Fold change related to DMSO control, WT” value in assay [1] was 1.22 fold. In addition, the “Fold change related to DMSO control, HAQ” value in assay [2] amounted to 1.13 fold. This molecule also returned an EC50 in assay [3] of over 21.6 µM.

In the case of `CCn1nc(C)cc1C(=O)Nc1nc2cc(C(N)=O)cc3c2n1CCCN3C` [Example 60, 1-(1-ethyl-3-methyl-1H-pyrazole-5-carboxamido)-6-methyl-6,7,8,9-tetrahydro-2,6,9a-triaza benzo[cd]azulene-4-carboxamide], the “Fold change related to DMSO control, WT” value in assay [1] came out at 6.55 fold. Besides, the “Fold change related to DMSO control, HAQ” value in assay [2] was determined as 73.46 fold. Besides, the concentration giving a half-maximal response (EC50) in assay [3] is 15.8 µM.

For the molecule `CCn1nc(C)cc1C(=O)Nc1nc2cc(C(N)=O)cc3c2n1CC1(CC1)CO3` [Example 61, 1-(1-ethyl-3-methyl-1H-pyrazole-5-carboxamido)-7H,9H-6-oxa-2,9a-diazaspiro[benzo[cd]azulene-8,1′-cyclopropan]-1,2a,3,5-tetraene-4-carboxamide], the “Fold change related to DMSO control, WT” value in assay [1] turned out to be 1.90 fold. In assay [2], the “Fold change related to DMSO control, HAQ” value came out at 8.67 fold. Further, in assay [3], the EC50 was over 16.7 µM.

For the molecule `CCn1nc(C)cc1C(=O)Nc1nc2cc(C(N)=O)cc3c2n1[C@@H](C)CCO3` [Example 62, (S)-1-(1-ethyl-3-methyl-1H-pyrazole-5-carboxamido)-9-methyl-8,9-dihydro-7H-6-oxa-2,9a-diazabenzo[cd]azulene-4-carboxamide], the “Fold change related to DMSO control, WT” value in assay [1] was 1.84 fold. Moreover, in assay [2], the “Fold change related to DMSO control, HAQ” value is listed as 13.40 fold. This molecule came in with an EC50 in assay [3] of over 27.2 µM.

As for `CCn1nc(C)c(F)c1C(=O)Nc1nc2cc(C(N)=O)cc3c2n1[C@@H](C)CCO3` [Example 63, (S)-1-(1-ethyl-4-fluoro-3-methyl-1H-pyrazole-5-carboxamido)-9-methyl-8,9-dihydro-7H-6-oxa-2,9a-diazabenzo[cd]azulene-4-carboxamide], the “Fold change related to DMSO control, WT” value in assay [1] is 2.10 fold. In assay [2], the “Fold change related to DMSO control, HAQ” value is recorded as 15.19 fold. The EC50 in assay [3] was over 16.7 µM.

Turning to `CCn1nc(C)c(F)c1C(=O)Nc1nc2cc(C(N)=O)cc3c2n1CC1(CC1)CO3` [Example 64, 1-(1-ethyl-4-fluoro-3-methyl-1H-pyrazole-5-carboxamido)-7,9-dihydrospiro[6-oxa-2,9a-diazabenzo[cd]azulene-8,1′-cyclopropane]-4-carboxamide], the “Fold change related to DMSO control, WT” value in assay [1] is listed as 1.53 fold. In assay [2], the “Fold change related to DMSO control, HAQ” value turned out to be 5.84 fold. This molecule returned a concentration giving a half-maximal response (EC50) in assay [3] of over 12.8 µM.

For the molecule `CCn1nc(C)c(F)c1C(=O)Nc1nc2cc(C(N)=O)cc3c2n1CCCO3` [Example 65, 1-(1-ethyl-4-fluoro-3-methyl-1H-pyrazole-5-carboxamido)-8,9-dihydro-7H-6-oxa-2,9a-diazabenzo[cd]azulene-4-carboxamide], the “Fold change related to DMSO control, WT” value in assay [1] turned out to be 1.63 fold. Further, the “Fold change related to DMSO control, HAQ” value in assay [2] is 8.89 fold. For the same molecule, the EC50 in assay [3] was over 11.6 µM.

For the molecule `CCn1nc(C)c(F)c1C(=O)Nc1nc2cc(C(N)=O)cc3c2n1CCCN3C` [Example 66, 1-(1-Ethyl-4-fluoro-3-methyl-1H-pyrazole-5-carboxamido)-6-methyl-6,7,8,9-tetrahydro-2,6,9a-triazabenzo[cd]azulene-4-carboxamide], the “Fold change related to DMSO control, WT” value in assay [1] turned out to be 7.15 fold. Besides, the “Fold change related to DMSO control, HAQ” value in assay [2] is listed as 71.56 fold. Moreover, the EC50 in assay [3] came out at 2.8 µM.

`CCn1nc(C)cc1C(=O)Nc1nc2cc(C(N)=O)cc3c2n1CC(C)(C)CN3` [Example 67, 1-(1-Ethyl-3-methyl-1H-pyrazole-5-carboxamido)-8,8-dimethyl-6,7,8,9-tetrahydro-2,6,9a-tri azabenzo[cd]azulene-4-carboxamide]: the “Fold change related to DMSO control, WT” value in assay [1] is 7.90 fold. Besides, in assay [2], the “Fold change related to DMSO control, HAQ” value is on record as 49.72 fold. Moreover, in assay [3], the EC50 worked out at 14.9 µM.
